# Laboratory results: ChEMBL document CHEMBL5584239, “Discovery of novel quinoline scaffold selective estrogen receptor degraders (SERDs) for treatment of ER positive breast cancer with enhanced antiproliferative bioactivity through immunogenic cell death (ICD) effects” (Eur J Med Chem, 2024)
# Calls of active or inactive are those of the source. The rule behind the calls is not given here.
# Legend:
# [1] = system: MCF7; assay: Induction of cell cycle arrest at G0/G1 phase in human MCF7 cells at 10 uM incubated for 24 hrs by PI/RNase staining based flow cytometry (reference value: 53.5 +/- 1.96 %); type: functional
# [2] = system: MCF7; assay: Induction of ROS production in human MCF7 cells incubated for 3 to 24 hrs by immunofluorescence analysis; type: functional, cell-based; settings: time 3-24 hrs
# [3] = system: Uterus; assay: Effect on immature Sprague-Dawley rat uterus assessed as reduction in uterine wet weight at 2 mg/kg, sc qd for 2 days by H and E staining based analysis; type: functional, organism-based; settings: time 2.0 day
# [4] = system: MCF7; assay: Antiproliferative activity against human MCF7 cells incubated for 5 days by MTT assay; type: functional, cell-based; settings: MCF7, 120 h
# [5] = system: Ishikawa; assay: Antiproliferative activity against human Ishikawa cells at 20 uM incubated for 3 days by MTT assay relative to control; type: functional; settings: 72 h, time 3 day
# [6] = system: MCF7; assay: Synergistic antiproliferative activity against human MCF7 cells at 0.1 to 10000 nM incubated for 5 days in presence of Ribociclib by MTT assay; type: functional, cell-based; settings: dose 0.1-10000 nM, time 5.0 day
smiles,measurement,setting,value
C[C@]12CC[C@@H]3c4ccc(O)cc4C[C@@H](CCCCCCCCC[S+]([O-])CCCC(F)(F)C(F)(F)F)[C@H]3[C@@H]1CC[C@@H]2O (stereo partly specified) [FULVESTRANT],Activity,[1],66.83%
same,Activity,[2],inactive
same,Activity,[3],Active
same,IC50,[4],0.646 nM
same,inhibition at 20 µM,[5],-3.19%
same,Activity,[6],Active
